Values of other authors as cited in patent publication US20180028591A1, “MALE AND FEMALE INFERTILITY HERBAL COMPOSITION” (priority 2016, published 2018).

Test system: rabbit penile tissue
Settings: by nitric oxide and PDE5 activity

SMILES: COc1ccc(-c2oc3c(CC=C(C)C)c(O[C@@H]4O[C@H](CO)[C@@H](O)[C@H](O)[C@H]4O)cc(O)c3c(=O)c2O[C@@H]2O[C@@H](C)[C@H](O)[C@@H](O)[C@H]2O)cc1 [icariin]
- relaxation of penile tissue: relax rabbit penile tissue
